These results are taken from patent US5405857A, “3-substituted 1,2,3,4,-oxatriazole-5-imine compounds, a process for the preparation thereof and a pharmaceutical preparation containing said compounds” (A/S GEA Farmaceutisk Fabrik, priority 1991, dated 1995).

For data set [1], the system named is male rats. The settings on record: rat, in vivo, po, 20 mg/kg. The protocol:
Two tests were carried out on male rats, namely a determination of the "maximum tolerable dose" (MTD) and a test using multiple peroral doses. In addition, a LD50 test was carried out intravenously on mice.
At this test the substances were administered perorally in a dose of 20 mg per kg. as solutions or suspensions once a day for 5 days to groups of 5 animals. Clinical observations were made every day and the above hematological parameters were measured on the third day of the test.

The target in data set [2] is T1, soluble guanylate cyclase (Homo sapiens, UniProt Q02153).
T1 construct: The guanylate cyclase activity in the supernatant after incubation with and without the test substance; endogenous in cells; host or cells: human blood platelets, supernatant of homogenate
T1 sequence (Q02153 1-619): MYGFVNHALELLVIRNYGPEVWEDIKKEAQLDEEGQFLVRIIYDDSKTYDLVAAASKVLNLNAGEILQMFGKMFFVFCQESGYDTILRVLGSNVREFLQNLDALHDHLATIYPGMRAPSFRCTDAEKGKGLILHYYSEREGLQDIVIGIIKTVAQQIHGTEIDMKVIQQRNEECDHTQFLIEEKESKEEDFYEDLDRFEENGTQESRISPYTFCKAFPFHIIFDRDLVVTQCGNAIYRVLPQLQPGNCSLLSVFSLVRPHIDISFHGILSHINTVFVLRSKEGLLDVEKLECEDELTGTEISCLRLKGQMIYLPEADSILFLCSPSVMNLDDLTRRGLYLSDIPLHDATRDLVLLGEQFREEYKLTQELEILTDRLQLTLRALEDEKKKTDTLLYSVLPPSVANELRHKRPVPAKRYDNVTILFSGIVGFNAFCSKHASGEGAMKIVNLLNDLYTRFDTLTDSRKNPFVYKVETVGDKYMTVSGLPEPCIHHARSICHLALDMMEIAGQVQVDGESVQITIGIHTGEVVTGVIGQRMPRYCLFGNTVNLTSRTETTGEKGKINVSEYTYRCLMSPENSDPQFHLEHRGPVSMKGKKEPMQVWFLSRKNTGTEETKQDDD
T1 sequence (Q02108 1-690 partner): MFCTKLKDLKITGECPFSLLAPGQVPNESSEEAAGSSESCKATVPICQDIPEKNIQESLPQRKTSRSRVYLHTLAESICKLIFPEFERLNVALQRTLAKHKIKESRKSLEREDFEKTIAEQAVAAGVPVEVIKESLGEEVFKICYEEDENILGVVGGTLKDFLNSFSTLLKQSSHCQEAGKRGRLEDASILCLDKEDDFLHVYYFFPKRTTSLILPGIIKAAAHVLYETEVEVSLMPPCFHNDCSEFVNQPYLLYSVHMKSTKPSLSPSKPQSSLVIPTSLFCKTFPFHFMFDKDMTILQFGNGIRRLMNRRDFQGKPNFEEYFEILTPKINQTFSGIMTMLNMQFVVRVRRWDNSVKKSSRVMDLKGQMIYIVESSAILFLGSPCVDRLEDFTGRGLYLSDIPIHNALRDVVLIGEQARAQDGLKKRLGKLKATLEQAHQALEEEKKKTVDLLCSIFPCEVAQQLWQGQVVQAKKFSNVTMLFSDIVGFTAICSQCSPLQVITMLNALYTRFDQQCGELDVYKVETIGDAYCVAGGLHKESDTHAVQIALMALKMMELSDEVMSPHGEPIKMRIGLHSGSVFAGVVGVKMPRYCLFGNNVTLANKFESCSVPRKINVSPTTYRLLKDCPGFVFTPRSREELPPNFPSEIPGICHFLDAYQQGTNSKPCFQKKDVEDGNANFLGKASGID
Kind of data set: Stimulation of guanylate cyclase from blood platelets (RIA). It counts as biochemical. The following applies: 37° C.

Data set [3] has as its system blood platelets. Kind of data set: Inhibition of blood platelet aggregation (aggregometer, ADP). Type of data set: cell-based, human (healthy testees). The following applies: for IC50: Platelet, 0.05 h, read-out: IC50 (Inhibition of blood platelet aggregation). The protocol: Compounds according to the invention were tested for their inhibition of clumping together (aggregation) of blood platelets (thrombocytes), which is the first phase of the formation of blood clots (thrombi). Such an inhibition may prevent the formation of blood clots and inhibit the development of new thrombi after a diagnosed thrombus.
Citrate stabilized ( 0.38% of sodium citrate, final concentration) venous blood from healthy testees is used, who have not used medicine for at least 8 days. Slight centrifugation (160×g for 10 minutes) results in PRP (blood plasma rich in platelets) which is pipetted. PPP (blood plasma poor in platelets) is obtained by an intense centrifugation (3000×g for 10 minutes) of the remaining blood. The light transmission is measured by the aggregometer (CHRONOLOG). PRP allows nearly no light transmitaaion, while PPP allows complete transmission of light. The PRP is placed in the aggregometer at 37° C. while being stirred by a magnet. Addition of a pro-aggregating substance causes the PRP to aggregate gradually and an increasing light transmission takes place at the same time. At complete aggregation a light transmission corresponding to PPP is obtained. Adnosine diphosphate (ADP) is used as pro-aggregating substance, said substance representing a basic biochemical mechanism for aggregation of blood platelets. The test substances are incubated for 3 minutes in PRP placed in the aggregometer at 37° C. during magnetic stirring. A predetermined positively aggregating dosage of adenosine diphosphate (ADP) (2 to 4 μM) is then added. […] A so-called IC50 -value (that is the concentration inhibiting the aggregation by 50% relative to the control aggregation) is calculated for each test substance by linear regression analysis (log concentration μM as constant ad abscissa and % inhibition as variable ad ordinate). The following known reference substances have been used: nitroglycerine (GTN), sodium nitroprusside (NNP) and SIN-1 (the active metabolite of molsidomine).

Data set [4] relates to PAI-1. Kind of data set: Inhibition of plasminogen activator inhibitor (PAI-1) from blood platelets (fibrinolytic activity). Type of data set: cell-based, human. The settings on record: 50 μM, 60 minutes; for % Inhibition of PAI-1 activity: compared to control; for PAI-1 activity: human PRP, control 3.24. The protocol: Compounds according to the invention were tested for their inhibition of plasminogen activator inhibitor (PAI). An established thrombus comprises aggregated platelets cohered by fibrin. The organism has a fibrinolyric system for maintaining normal physiological conditions. Endogenous plasminogen is activated to plasmin (fibrinolysin, that is a proteolytic enzyme decomposing fibrin) by means of a tissue plasminogen activator (t-PA). The platelets include the enzyme PAI-1 inhibiting the activation of plasminogen to plasmin, and thus also the decomposition of fibrin.
A general stimulation of the fibrinolytic system can cause serious hemostatic side effects (haemorrhages). A specific inhibition of PAI-1 induces an increased fibrinolysis in areas with many platelets, which is exactly the case in thrombi. As a result a thrombolytic effect is obtained.
Human PRP prepared by slight centrifugation as previously mentioned is used, but at a low temperature (4° C.). By incubation of PRP (1 ml in a plastic tube) during a slight shaking at 37° C. the PAI-1 activity is liberated, said PAI-1 activity being measured spectrophotometrically by means of a two-step procedure using commercial kits (Spectrolyse™/fibrin kit from BIOPOOL, Sweden).
The PAI-1 activity of the control PRP and PRP incubated with each of 6 compounds according to the invention and the reference substance sodium niroprusside (NNP) (50 μM of each for 60 minutes) appear from Table 6.

For data set [5], the system named is polymorph nuclear leukocytes (PMNs), c-GMP. Briefly: Stimulation of c-GMP content in PMNs. The settings on record: 37° C., 10 minutes. Type of data set: cell-based, human. As for the experimental part: Compounds according to the invention were tested for their ability to increase the content of cyclic guanosine monophosphate (c-GMP), to inhibit the synthesis of the leukotriene B4 (LTB4), and to inhibit the chemotactical movement of polymorph nuclear leukocytes (PMN). The polymorph nuclear leukocytes play a vital part in the cellular part of the inflammation process. At diseases, such as asthma, the mucuos membrane of the respiratory passages is swollen as a result of an inflammation with a significant infiltration of polymorph nuclear leukocytes (PMN's) in particular. Particularly effective substances for the treatment of asthma are such which in addition to relaxing the musculature in the respiratory passages also have an anti-inflammatory effect on the cellular phase of the inflammatory process, that is inhibiting the leukocyte function.
Isolated human PMNs are incubated at 37° C. for 10 minutes, whereafter the content of cyclic guanosine monophosphate (c-GMP) is measured. Further, the synthesis of the LTB4 is determined after stimulation with Ca-ionophore (A23187) and the chemotaxis (controlled movement) towards FMLP (a substance attracting the polymorph nuclear leukocytes, PMNs) is determined.
Three compounds according to the invention and the reference substance SIN-1 were tested for their ability to stimulate the content of cyclic guanosine monophosphate (c-GMP).

[6] abbreviates: human PRP, ADP 2 to 4 μM, 3 min incubation, 37° C.

Structures can show the parent of a compound that is named as a salt. Where two headings read alike, the source gives them in different places.

Take `O=C([N-]c1n[n+](-c2ccc(Cl)cc2Cl)no1)c1cccnc1` [Example 43]: in data set [1], the Clinical observations result is “N.R”, the Hematological parameters result is on record as “N.R” and the “Side effects (in words)” value was “no side effects”.

Turning to `[NH-]c1n[n+](-c2ccc(Cl)cc2F)no1` [Example 26], in data set [1], the Clinical observations entry is listed as “N.R”, the Hematological parameters entry is “N.R” and the “Side effects (in words)” value is “no side effects”.

As for `[NH-]c1n[n+](-c2c(Cl)cccc2Cl)no1` [Example 23], the figures for the Guanylate cyclase activity in data set [2] (0.01 μM) and in data set [2] (10 μm (so in the source)) were 383 pmole c-GMP/mg prot. × 15 minutes and 76915 pmole c-GMP/mg prot. × 15 minutes, respectively.

For the compound `[NH-]c1n[n+](-c2cccc(Cl)c2Cl)no1` [Example 21, 3-(2-chloro-3-chlorophenyl)-1,2,3,4-oxatriazole-5-imine], in data set [1], the Clinical observations result is “N.R”, the Hematological parameters result was “N.R” and the “Side effects (in words)” value is “no side effects”.

The term IC50 denotes the concentration that gives 50% inhibition. Take `O=C([N-]c1n[n+](-c2cccc(C(F)(F)F)c2)no1)c1cccnc1` [Example 34]: in data set [3] (setting [6]), the IC50 stood at 190 nM.

For the compound `[NH-]c1n[n+](-c2ccc(Cl)c(C(F)(F)F)c2)no1` [Example 18], the IC50 in data set [3] (Homo sapiens) was found to be 540 nM. Also, in data set [4], the “% Inhibition of PAI-1 activity” value was 40% and the PAI-1 activity was 1.93 U/10^8 platelets.

Regarding `[NH-]c1n[n+](-c2cccc(C(F)(F)F)c2)no1` [Example 3, 3-(3-trifluoromethylphenyl)-1,2,3,4-oxatriazole-5-imine hydrochloride], the Guanylate cyclase activity is reported as 2499 pmole c-GMP/mg prot. × 15 minutes in data set [2] (0.01 μM) and 47529 pmole c-GMP/mg prot. × 15 minutes in data set [2] (10 μm (so in the source)).

In the case of `N#Cc1ccc(-[n+]2noc([NH-])n2)cc1` [Example 8], the Guanylate cyclase activity in data set [2] (0.01 μM) was 897 pmole c-GMP/mg prot. × 15 minutes; in data set [2] (10 μm (so in the source)) it was 64192 pmole c-GMP/mg prot. × 15 minutes. In data set [4], the “% Inhibition of PAI-1 activity” value stood at 44%. In addition, the PAI-1 activity in data set [4] stood at 1.83 U/10^8 platelets.

Consider `Cc1c(Cl)cccc1-[n+]1noc([N-]C2CCCCC2)n1` [Example 63], for which the Guanylate cyclase activity in data set [2] (0.01 μM) is given as 1761 pmole c-GMP/mg prot. × 15 minutes; in data set [2] (10 μm (so in the source)), 72730 pmole c-GMP/mg prot. × 15 minutes.

For `[NH-]c1n[n+](-c2ccc(Cl)c(Cl)c2)no1` [Example 24], the Guanylate cyclase activity is reported as 2374 pmole c-GMP/mg prot. × 15 minutes in data set [2] (0.01 μM) and 59716 pmole c-GMP/mg prot. × 15 minutes in data set [2] (10 μm (so in the source)). The “% Inhibition of PAI-1 activity” value in data set [4] stood at 34%. For the same compound, the PAI-1 activity in data set [4] turned out to be 2.14 U/10^8 platelets. For the same compound, the “c-GMP in PMNs” value in data set [5] (1 μM) is recorded as 391 fmole/10^6 cells; in data set [5] (10 μM), 965 fmole/10^6 cells; in data set [5] (100 μM), 1078 fmole/10^6 cells.

`N#Cc1cccc(-[n+]2noc([NH-])n2)c1` [Example 7]: the IC50 in data set [3] (setting [6]) came to 100 nM.

Take `O=C([N-]c1n[n+](-c2cccc(C(F)(F)F)c2)no1)c1ccncc1` [Example 50]: in data set [1], the Clinical observations result is listed as “N.R”, the Hematological parameters entry is on record as “N.R” and the “Side effects (in words)” value is “no side effects”. In addition, the IC50 in data set [3] (setting [6]) turned out to be 90 nM.

In the case of `[NH-]c1n[n+](-c2ccccc2C(F)(F)F)no1` [Example 2], the Guanylate cyclase activity is on record as 411 pmole c-GMP/mg prot. × 15 minutes in data set [2] (0.01 μM) and 37920 pmole c-GMP/mg prot. × 15 minutes in data set [2] (10 μm (so in the source)).

On to `O=[N+]([O-])OCC(CO[N+](=O)[O-])O[N+](=O)[O-]` [GTN, nitroglycerine, reference compound], for which the “Inhibition of blood platelet aggregation (in words)” value in data set [3] (ADP, PRP) was “inactive”. The IC50 in data set [3] (setting [6]) stood at 100000 nM.
